Test results published in patent US6362134B1, “Herbicidal 1,2,4,6-thiatriazines” (Syngenta Investment Corporation, priority 1996, dated 2002).

Legend:
Format in all cases: in vivo
Stellaria [1] = test: Post-emergent herbicidal action (contact herbicide); parameters: key: 1=complete damage; 9=no action; Ratings of 1 to 4 (in particular 1 to 3) mean a good to very good herbicidal action; conditions: 2000 g of active substance/ha, sprayed in the 4- to 6-leaf stage, evaluated after about 18 days, ratings scale 1-9
Experimental: (§1) Monocotyledon and dicotyledon test plants are grown in plastic pots with standard soil in a greenhouse and, in the 4- to 6-leaf stage, are sprayed with an aqueous suspension of the test substances of the formula 1, prepared from a 25% wettable power (Example F3, b)), corresponding to a dosage of 2000 g of active substance/ha (500 l of water/ha). The test plants are then grown further in the greenhouse under optimum conditions. After a test period of about 18 days, the test is evaluated with a ratings scale of 9 levels (1=complete damage, 9=no action). Ratings of 1 to 4 (in particular 1 to 3) mean a good to very good herbicidal action.
(§2) Test plants: Sinapis, Stellaria

Sinapis [2] = test: as above; parameters: key: 1=complete damage; 9=no action; Ratings of 1 to 4 (in particular 1 to 3) mean a good to very good herbicidal action; conditions: 2000 g of active substance/ha, sprayed in the 4- to 6-leaf stage, evaluated after about 18 days, ratings scale 1-9
Experimental: as §1, §2

Stellaria [3] = test: Herbicidal action before emergence of the plants (pre-emergent action); parameters: key: 1=complete damage; 9=no action; Ratings of 1 to 4 (in particular 1 to 3) mean a good to very good herbicidal action; conditions: 2000 g of active substance/ha, sprayed immediately after sowing, evaluated after 3 weeks, ratings scale of nine levels
Experimental: (§3) Monocotyledon and dicotyledon test plants are sown in standard soil in plastic pots. Immediately after sowing, the test substances are sprayed on (500 l of water/ha) in an aqueous suspension prepared from a 25% wettable powder (Example F3, b)), corresponding to a dosage of 2000 g of active substance/ha. The test plants are then grown under optimum conditions in a greenhouse. After a test period of 3 weeks, the test is evaluated with a ratings scale of nine levels (1=complete damage, 9=no action). Ratings of 1 to 4 (in particular 1 to 3) mean a good to very good herbicidal action.
(§4) Test plants: Avena, Setaria, Sinapis, Stellaria

Setaria = test: as above; parameters: key: 1=complete damage; 9=no action; Ratings of 1 to 4 (in particular 1 to 3) mean a good to very good herbicidal action; conditions: 2000 g of active substance/ha, sprayed immediately after sowing, evaluated after 3 weeks, ratings scale of nine levels
Experimental: as §3, §4

Sinapis [4] = test: as above; parameters: key: 1=complete damage; 9=no action; Ratings of 1 to 4 (in particular 1 to 3) mean a good to very good herbicidal action; conditions: 2000 g of active substance/ha, sprayed immediately after sowing, evaluated after 3 weeks, ratings scale of nine levels
Experimental: as §3, §4

Avena = test: as above; conditions: 2000 g of active substance/ha, sprayed immediately after sowing, evaluated after 3 weeks, ratings scale of nine levels (1=complete damage, 9=no action)
Experimental: as §3, §4

| Structure (SMILES) | Post-emergent action, rating, Stellaria (Stellaria [1]) | Post-emergent action, rating, Sinapis (Sinapis [2]) | Pre-emergent action, rating, Stellaria (Stellaria [3]) | Pre-emergent action, rating, Setaria (Setaria) | Pre-emergent action, rating, Sinapis (Sinapis [4]) | Pre-emergent action, rating, Avena (Avena) |
| --- | --- | --- | --- | --- | --- | --- |
| CN(C1CCCCC1)S1=NC(N)=NC(Oc2c(F)c(F)c(F)c(F)c2F)=N1 (stereo not shown) [6.7] | 3 | 2 | – | – | – | – |
| CC1CCCC(OS2=NC(N)=NC(Oc3cc(F)ccc3F)=N2)C1 (stereo not shown) [5.318] | 4 | 2 | – | – | – | – |
| CCCC(CC)OS1=NC(N)=NC(Oc2c(F)c(F)c(F)c(F)c2F)=N1 (stereo not shown) [5.332] | 2 | 1 | 1 | 1 | 1 | 3 |
| CC1(C)CCCN(S2=NC(N)=NC(Oc3c(F)c(F)c(F)c(F)c3F)=N2)C1 (stereo not shown) [6.34] | 2 | 2 | 1 | 1 | 1 | 3 |
| CC(C)N(C(C)C)S1=NC(Oc2c(F)c(F)c(F)c(F)c2F)=NC(N)=N1 (stereo not shown) [6.247] | 4 | 3 | – | – | – | – |
| CC1CCN(S2=NC(N)=NC(Oc3c(F)c(F)c(F)c(F)c3F)=N2)C2CCCCC12 (stereo not shown) [6.285] | 3 | 2 | 1 | 2 | 1 | 5 |
| CC1CC(N(C)S2=NC(N)=NC(Oc3c(F)c(F)c(F)c(F)c3F)=N2)CC(C)(C)C1 (stereo not shown) [6.194] | 4 | 2 | 2 | 5 | 2 | 7 |
| CC1CC(OS2=NC(N)=NC(Oc3c(F)c(F)c(F)c(F)c3F)=N2)CC(C)(C)C1 (stereo not shown) [5.86] | – | – | 1 | 3 | 1 | 5 |
| CC1N(S2=NC(N)=NC(Oc3c(F)c(F)c(F)c(F)c3F)=N2)CCCC1(C)C (stereo not shown) [6.90] | 4 | 2 | – | – | – | – |
| CC1CCCC(OS2=NC(N)=NC(Oc3c(F)c(F)c(F)c(F)c3F)=N2)C1 (stereo not shown) [5.141] | 4 | 2 | – | – | – | – |
| NC1=NS(N2CC3CCC(CC3)C2)=NC(Oc2cc(F)ccc2F)=N1 (stereo not shown) [6.81] | 3 | 2 | – | – | – | – |
| NC1=NS(N2CCc3ccccc3C2)=NC(Oc2c(F)c(F)c(F)c(F)c2F)=N1 (stereo not shown) [6.145] | 3 | 3 | 1 | 2 | 1 | 4 |
| NC1=NC(Oc2c(F)c(F)c(F)c(F)c2F)=NS(NC2CCCCC2)=N1 (stereo not shown) [6.17] | 4 | 3 | – | – | – | – |
| NC1=NS(N2CCC3CCCCC3CC2)=NC(Oc2c(F)c(F)c(F)c(F)c2F)=N1 (stereo not shown) [6.283] | 4 | 1 | – | – | – | – |
| CC(OS1=NC(N)=NC(Oc2c(F)c(F)c(F)c(F)c2F)=N1)[Si](C)(C)C (stereo not shown) [5.329] | 5 | 1 | 1 | 1 | 1 | 2 |
| CCCN(CCC)S1=NC(N)=NC(Oc2c(F)c(F)c(F)c(F)c2F)=N1 (stereo not shown) [6.21] | 4 | 2 | – | – | – | – |
| NC1=NC(Oc2c(F)c(F)c(F)c(F)c2F)=NS(N2CC[C@H]3CCC[C@H]32)=N1 (relative stereo) [6.6] | 4 | 2 | – | – | – | – |
| CC1CC(C)CN(S2=NC(N)=NC(Oc3cc(F)ccc3F)=N2)C1 (stereo not shown) [6.23] | 4 | 2 | – | – | – | – |
| CC1CCC(C)N1S1=NC(N)=NC(Oc2c(F)c(F)c(F)c(F)c2F)=N1 (stereo not shown) [6.63] | – | – | 1 | 3 | 1 | 4 |
| NC1=NC(Oc2c(F)c(F)c(F)c(F)c2F)=NS(N2CC[C@H]3CCC[C@H]32)=N1 (relative stereo) [6.10] | – | – | 1 | 4 | 1 | 4 |

| Structure (SMILES) | Post-emergent action, rating, Stellaria (Stellaria [1]) | Post-emergent action, rating, Sinapis (Sinapis [2]) | Pre-emergent action, rating, Stellaria (Stellaria [3]) | Pre-emergent action, rating, Setaria (Setaria) | Pre-emergent action, rating, Sinapis (Sinapis [4]) | Pre-emergent action, rating, Avena (Avena) |
| --- | --- | --- | --- | --- | --- | --- |
| NC1=NC(Oc2c(F)c(F)c(F)c(F)c2F)=NS(OCC23CC4CC(CC(C4)C2)C3)=N1 (stereo not shown) [5.85] | 3 | 3 | – | – | – | – |
| CC1CCCC(OS2=NC(N)=NC(Oc3c(F)c(F)c(F)c(F)c3F)=N2)C1 (stereo not shown) [5.317] | – | – | 1 | 2 | 2 | 4 |
| CC1CC(NS2=NC(N)=NC(Oc3c(F)c(F)c(F)c(F)c3F)=N2)CC(C)(C)C1 (stereo not shown) [6.168] | 3 | 2 | – | – | – | – |
| NC1=NC(Oc2cc(F)ccc2F)=NS(N2CCCCCC2)=N1 (stereo not shown) [6.57] | 4 | 2 | – | – | – | – |
| NC1=NC(OCC(Cl)(Cl)C(F)(F)F)=NS(OCCCl)=N1 (stereo not shown) [5.337] | 5 | 1 | – | – | – | – |
| NC1=NC(Oc2c(F)c(F)c(F)c(F)c2F)=NS(N2CCN(c3ccccc3)CC2)=N1 (stereo not shown) [6.77] | – | – | 1 | 3 | 1 | 4 |
| CC1CCC(OS2=NC(N)=NC(Oc3c(F)c(F)c(F)c(F)c3F)=N2)CC1 (stereo not shown) [5.327] | – | – | 1 | 3 | 2 | 4 |
| CC12CCCCC1N(S1=NC(N)=NC(Oc3c(F)c(F)c(F)c(F)c3F)=N1)CCC2 (stereo not shown) [6.181] | 3 | 2 | – | – | – | – |
| NC1=NC(Oc2cc(F)ccc2F)=NS(N2CCc3ccccc3CC2)=N1 (stereo not shown) [6.164] | 3 | 1 | – | – | – | – |
| CC1(C)CC(OS2=NC(N)=NC(Oc3c(F)c(F)c(F)c(F)c3F)=N2)CC(C)(C)C1 (stereo not shown) [5.146] | – | – | 1 | 1 | 1 | 4 |
| NC1=NS(N2CCCCCCCCCCCC2)=NC(Oc2c(F)c(F)c(F)c(F)c2F)=N1 (stereo not shown) [6.177] | 2 | 2 | – | – | – | – |
| NC1=NC(Oc2cc(F)ccc2F)=NS(N2CC[C@H]3CCCC[C@H]32)=N1 (relative stereo) [6.120] | 4 | 2 | – | – | – | – |
| CCC(C)(C)C1CCC(OS2=NC(N)=NC(Oc3c(F)c(F)c(F)c(F)c3F)=N2)CC1 (stereo not shown) [5.59] | 3 | 1 | – | – | – | – |
| CC1CCN(S2=NC(Oc3cc(F)ccc3F)=NC(N)=N2)CC(C)(C)C1 (stereo not shown) [6.249] | 2 | 1 | – | – | – | – |
| NC1=NC(Oc2c(F)c(F)c(F)c(F)c2F)=NS(N2CCCCC2)=N1 (stereo not shown) [6.53, 3-amino-5-pentafluorophenoxy-1-(piperidin-1-yl)thiatriazine] | – | – | 1 | 3 | 1 | 3 |
| CC(C)(C)C1CCC(OS2=NC(N)=NC(Oc3c(F)c(F)c(F)c(F)c3F)=N2)CC1 (stereo not shown) [5.316] | 4 | 2 | – | – | – | – |
| NC1=NC(Oc2c(F)c(F)c(F)c(F)c2F)=NS(N2CCCC3CCCCCCC32)=N1 (stereo not shown) [6.102] | 3 | 2 | – | – | – | – |
| NC1=NS(N2CCCCCCCCCC2)=NC(Oc2c(F)c(F)cc(F)c2F)=N1 (stereo not shown) [6.320] | 3 | 2 | – | – | – | – |
| CC1(C)C2CCC1(C)C(OS1=NC(N)=NC(Oc3c(F)c(F)c(F)c(F)c3F)=N1)C2 (stereo not shown) [5.154] | 4 | 2 | – | – | – | – |
